Experimental data from patent publication US20080109040A1, “METHOD OF TREATING ARRHYTHMIAS” (priority 2002, published 2008).
Where two headings read alike, the source gives them in different places.

Columns and labels:
[1] = tested on: inward rectifier potassium current (IK1); experiment: Voltage clamp of inward rectifier IK1 in canine ventricular myocytes; type: cell-based; conditions: ranolazine up to 100 μM
Protocol: Myocytes were isolated by enzymatic dissociation from a wedge-shaped section of the left ventricular free wall supplied by the left circumflex coronary artery. Cells from the epicardial and midmyocardial regions of the left ventricle were used in this study.
Inward rectifier potassium current (IK), slow delayed rectifier potassium current (IKs), and rapid delayed rectifier potassium current (IKr) were recorded at 37° C. using conventional whole cell voltage clamp configuration.
IK1 was measured using an external solution containing 3 μM ouabain and 5 μM nifedipine to block the sodium-potassium pump and L-type calcium current (ICa,L), respectively. […] 5 μM nifedipine was present in the external solution when IKr was being recorded. […]
IKr was measured as the time-dependent tail current elicited at a potential of −40 mV following a short 250 ms depolarizing pulse to 30 mV. Data are presented as mean ±S.E.M. IK1 was recorded during 900 msec voltage steps applied from a holding potential of −40 mV to test potentials ranging from −100 mV to 0 mV, and was characterized as the 5 msec average of the steady state current at the end of the test pulse.
The inward rectifier, IK1, was recorded using perforated-patch voltage clamp techniques. […] Panel B plots composite data illustrating the current-voltage relations constructed from the average current measured at the end of each test pulse

[2] = tested on: Purkinje fibers; design: species or system canine; conditions: for Amplitude (phase 0) / Overshoot / RMP: BCL = 500 msec
Protocol: Dogs weighing 20-25 kg were anticoagulated with heparin and anesthetized with pentobarbital (30-35 mg/kg, i.v.). The chest was opened via a left thoracotomy, the heart excised and placed in a cold cardioplegic solution ([K^+]o=8 mmol/L, 4° C.). Free running Purkinje fibers were isolated from the left and right ventricles. The preparations were placed in a tissue bath (5 ml volume with flow rate of 12 ml/min) and allowed to equilibrate for at least 30 min while superfused with an oxygenated Tyrode's solution (pH=7.35, t^0=37±0.5° C.) and paced at a basic cycle length (BCL) of 1 Hz using point stimulation. The composition of the Tyrode's solution was as following (in mM): NaCl 129, KCl 4, NaH2PO4 0.9, NaHCO3 20, CaCl2 1.8, MgSO4 0.5, and D-glucose 5.5.
Action potential recordings: Transmembrane potentials were recorded using standard glass microelectrodes filled with 2.7 M KCl (10 to 20 MΩ DC resistance) connected to a high input-impedance amplification system (World Precision Instruments, Sarasota, Fla., USA).
Control recordings were obtained after a 30 min equilibration period. Increasing concentrations of ranolazine (1, 5, 10, 50, and 100 μM) were evaluated, with recordings started 20 minutes after the addition of each concentration of the drug. The rate-dependence of ranolazine's actions were evaluated by recording action potentials at basic cycle lengths (BCL) of 300, 500, 800, 1000, 2000, and 5000 msec. In this report only BCLs of 500 and 2000 msec are presented as representative of relatively rapid and slow pacing rates.
Because low extracellular K^+ is known to promote drug-induced APD prolongation and early afterdepolarizations, we determined the effects of ranolazine in the presence of normal (4 mM) and low (3 mM) [K^+]o.
In the final phase, we evaluate the effects of ranolazine on EADs induced by d-sotalol (100 μM), a fairly specific IKr blocker.

[3] = ranolazine 1.0 μM, [K+]0 = 3.0 mM
[4] = ranolazine 1.0 μM, [K+]0 = 4.0 mM
[5] = ranolazine 5.0 μM, [K+]0 = 3.0 mM
[6] = ranolazine 5.0 μM, [K+]0 = 4.0 mM
[7] = ranolazine 10.0 μM, [K+]0 = 3.0 mM
[8] = ranolazine 10.0 μM, [K+]0 = 4.0 mM
[9] = ranolazine 50.0 μM, [K+]0 = 3.0 mM
[10] = ranolazine 50.0 μM, [K+]0 = 4.0 mM
[11] = ranolazine 100.0 μM, [K+]0 = 3.0 mM
[12] = ranolazine 100.0 μM, [K+]0 = 4.0 mM

Structure (SMILES): COc1ccccc1OCC(O)CN1CCN(CC(=O)Nc2c(C)cccc2C)CC1 (racemic) [ranolazine, N-(2,6-dimethylphenyl)-4-[2-hydroxy-3-(2-methoxyphenoxy)propyl]-1-piperazineacetamide]
- Effect on IK1 [1]: no change
- Effect on IK1 ([1]; listed as Ranolazine): did not alter
- Lowest concentration suppressing EADs induced by d-sotalol [2]: 5 micromolar/L
- Amplitude (phase 0) [2, 3]: 132 ± 6
- Overshoot [2, 3]: 40 ± 5
- RMP [2, 3]: −92 ± 1
- Amplitude (phase 0) [2, 4]: 120 ± 9
- Overshoot [2, 4]: 32 ± 7
- RMP [2, 4]: −90 ± 2
- Amplitude (phase 0) [2, 5]: 130 ± 5
- Overshoot [2, 5]: 38 ± 4
- RMP [2, 5]: −92 ± 1
- Amplitude (phase 0) [2, 6]: 124 ± 3
- Overshoot [2, 6]: 34 ± 7
- RMP [2, 6]: −90 ± 2
- Purkinje fibers in which d-sotalol-induced EADs were abolished ([2]; ranolazine 5 μM, d-sotalol 100 μM): 4 out of 4
- Amplitude (phase 0) [2, 7]: 128 ± 4
- Overshoot [2, 7]: 37 ± 4
- RMP [2, 7]: −92 ± 1
- Amplitude (phase 0) [2, 8]: 122 ± 7
- Overshoot [2, 8]: 32 ± 6
- RMP [2, 8]: −90 ± 3
- Amplitude (phase 0) [2, 9]: 121 ± 7
- Overshoot [2, 9]: 29 ± 6
- RMP [2, 9]: −92 ± 1
- Amplitude (phase 0) [2, 10]: 117 ± 7
- Overshoot [2, 10]: 28 ± 7
- RMP [2, 10]: −89 ± 3
- Amplitude (phase 0) [2, 11]: 114 ± 7
- Overshoot [2, 11]: 24 ± 7
- RMP [2, 11]: −90 ± 2
- Amplitude (phase 0) [2, 12]: 106 ± 12
- Overshoot [2, 12]: 19 ± 11
- RMP [2, 12]: −87 ± 3
- Effect on APD ([2]; ranolazine 1-10 μM, [K+]o 4 mM): either no effect or a relatively small abbreviation
- Effect on Vmax ([2]; ranolazine 50 and 100 μM): significant reduction
- Effect on APD90 ([2]; ranolazine 50 and 100 μM, [K+]o 4 mM): markedly abbreviated at slow, but not at rapid pacing rates
- Effect on APD50 ([2]; ranolazine 50 and 100 μM, rapid and slow rates, [K+]o 4 mM): significantly abbreviated
